Experimental data: article PMC8325362, “Drugs repurposed for COVID-19 by virtual screening of 6,218 drugs and cell-based assay” (Proceedings of the National Academy of Sciences of the …, 2021)
pIC50: −log10 of the molar value. Read-outs that look alike come from different tables or passages of the source.

Experiments:
M^pro = M^pro (Severe acute respiratory syndrome coronavirus 2, UniProt P0DTD1); format: biochemical; settings: FRET assay, 0.1 to 50 μM
[1] = Cytotoxicity (CC50) in Calu-3 cells; settings: human
[2] = Cytotoxicity (CC50) in Vero cells; settings: African green monkey
SARS-CoV-2 [3] = assay: microbe, parasite or virus in culture; format: cell-based
SARS-CoV-2 [4] = assay: microbe, parasite or virus in culture; settings: Severe acute respiratory syndrome coronavirus 2, Vero, 24 h, read-out: SARS-CoV-2 IC50 in Vero cells
[5] = human, cited from earlier work
in vitro [6] = settings: human
in vitro [7] = settings: African green monkey
SARS-CoV-2 [8] = assay: Checkerboard drug combination assay, SARS-CoV-2 inhibition in Vero cells; format: cell-based; settings: Severe acute respiratory syndrome coronavirus 2, Vero, read-out: Relative viral inhibition (%); for inhibition at 0.03 µM: Omipalisib 0.03 μM; for inhibition at 0.06 µM: Omipalisib 0.06 μM; for inhibition at 0.12 µM: Omipalisib 0.12 μM; for inhibition at 0.25 µM: Omipalisib 0.25 μM; for inhibition at 0.49 µM: Omipalisib 0.49 μM; for inhibition at 0.98 µM: Omipalisib 0.98 μM; for inhibition at 1.97 µM: Omipalisib 1.97 μM; for inhibition at 0.69 µM: Tipifarnib 0.69 μM; for inhibition at 1.38 µM: Tipifarnib 1.38 μM; for inhibition at 2.75 µM: Tipifarnib 2.75 μM; for inhibition at 5.5 µM: Tipifarnib 5.50 μM; for inhibition at 11 µM: Tipifarnib 11.00 μM; for inhibition at 22.01 µM: Tipifarnib 22.01 μM; for inhibition at 44.02 µM: Tipifarnib 44.02 μM
SARS-CoV-2 [9] = assay: in vitro; settings: African green monkey
in vitro [10] = settings: African green monkey, Relative cell viability (%)
SARS-CoV-2 [11] = settings: for antiviral activity against SARS-CoV-2 in Vero cells: assay validation with reference drugs
[12] = Severe acute respiratory syndrome coronavirus 2, Calu-3, 24 h, Calu-3 cells, MOI 0.5, 24 h
[13] = read-out: Approx. Cmax (maximum serum concentration), oral

SMILES: CCN1CCN(c2cc(-c3ccc(F)cc3)c3c(n2)CCCCCC3)CC1 [Blonanserin]
- inhibitory activity against M^pro (M^pro): showed inhibitory activities
- CC50 at 24 h [1]: > 50 µM
- CC50 at 24 h [2]: 30.3 µM
- pIC50 (SARS-CoV-2 [3]; [12]): < 4.30
- pIC50 (SARS-CoV-2 [4]): 4.92
- Cmax [5, 13]: ~3 nM

SMILES: Cc1cc(O)c2c(=O)c3c(O)cc(O)c4c5c(O)cc(O)c6c(=O)c7c(O)cc(C)c8c1c2c(c34)c(c78)c65 [Hypericin]
- CC50 (in vitro [6]): > 50 µM
- pIC50 (SARS-CoV-2 [3]; Severe acute respiratory syndrome coronavirus 2, Calu-3, 24 h, read-out: SARS-CoV-2 IC50 in Calu-3 cells): < 4.30
- pIC50 (SARS-CoV-2 [4]): 4.71
- CC50 (in vitro [7]): > 50 µM
- Cmax [5, 13]: ~8 nM

SMILES: O=C(Nc1cc(C(F)(F)F)cc(C(F)(F)F)c1)Nc1ccc(Br)cc1-c1nnn[nH]1 [NS-3728]
- CC50 at 24 h (in vitro [6]): > 50 µM
- pIC50 (SARS-CoV-2 [3]; [12]): < 4.30
- pIC50 (SARS-CoV-2 [4]): 4.55
- CC50 at 24 h (in vitro [7]): > 50 µM
- Cmax ([5]; in vivo, po): ~36500 nM

SMILES: COc1ncc(-c2ccc3nccc(-c4ccnnc4)c3c2)cc1NS(=O)(=O)c1ccc(F)cc1F [Omipalisib]
- CC50 at 24 h (in vitro [6]): > 0.02 µM
- inhibitory activity against M^pro (M^pro): showed no inhibitory activity
- inhibition at 0.03 µM (SARS-CoV-2 [8]; Fig. 4A, Remdesivir 0.00 μM): 6%
- inhibition at 0.06 µM (SARS-CoV-2 [8]; Fig. 4A, Remdesivir 0.00 μM): 6%
- inhibition at 0.12 µM (SARS-CoV-2 [8]; Fig. 4A, Remdesivir 0.00 μM): 15%
- inhibition at 0.25 µM (SARS-CoV-2 [8]; Fig. 4A, Remdesivir 0.00 μM): 29%
- inhibition at 0.49 µM (SARS-CoV-2 [8]; Fig. 4A, Remdesivir 0.00 μM): 63%
- inhibition at 0.98 µM (SARS-CoV-2 [8]; Fig. 4A, Remdesivir 0.00 μM): 73%
- inhibition at 1.97 µM (SARS-CoV-2 [8]; Fig. 4A, Remdesivir 0.00 μM): 78%
- inhibition at 0.03 µM (SARS-CoV-2 [8]; Fig. 4D, Tipifarnib 0.00 μM): 11%
- inhibition at 0.06 µM (SARS-CoV-2 [8]; Fig. 4D, Tipifarnib 0.00 μM): 31%
- inhibition at 0.12 µM (SARS-CoV-2 [8]; Fig. 4D, Tipifarnib 0.00 μM): 60%
- inhibition at 0.25 µM (SARS-CoV-2 [8]; Fig. 4D, Tipifarnib 0.00 μM): 90%
- inhibition at 0.49 µM (SARS-CoV-2 [8]; Fig. 4D, Tipifarnib 0.00 μM): 93%
- inhibition at 0.98 µM (SARS-CoV-2 [8]; Fig. 4D, Tipifarnib 0.00 μM): 95%
- inhibition at 1.97 µM (SARS-CoV-2 [8]; Fig. 4D, Tipifarnib 0.00 μM): 95%
- fold higher activity than remdesivir (SARS-CoV-2 [3]; Calu-3): 200 fold
- pIC50 (SARS-CoV-2 [3]; Calu-3 cells, MOI 0.5, 24 h): 8.00
- fold lower IC50 in Calu-3 cells than in Vero cells (SARS-CoV-2 [3]; Calu-3 vs Vero): 49 fold
- pIC50 (SARS-CoV-2 [3]; [12]): 8.00
- selectivity ratio (SARS-CoV-2 [9]): 62.8
- viability (in vitro [10]; Fig. 4B, Omipalisib 0.03 μM, Remdesivir 0.00 μM): 82%
- viability (in vitro [10]; Fig. 4B, Omipalisib 0.06 μM, Remdesivir 0.00 μM): 82%
- viability (in vitro [10]; Fig. 4B, Omipalisib 0.12 μM, Remdesivir 0.00 μM): 80%
- viability (in vitro [10]; Fig. 4B, Omipalisib 0.25 μM, Remdesivir 0.00 μM): 81%
- viability (in vitro [10]; Fig. 4B, Omipalisib 0.49 μM, Remdesivir 0.00 μM): 80%
- viability (in vitro [10]; Fig. 4B, Omipalisib 0.98 μM, Remdesivir 0.00 μM): 81%
- viability (in vitro [10]; Fig. 4B, Omipalisib 1.97 μM, Remdesivir 0.00 μM): 80%
- viability (in vitro [10]; Fig. 4E, Tipifarnib 0.00 μM, Omipalisib 0.03 μM): 87%
- viability (in vitro [10]; Fig. 4E, Tipifarnib 0.00 μM, Omipalisib 0.06 μM): 89%
- viability (in vitro [10]; Fig. 4E, Tipifarnib 0.00 μM, Omipalisib 0.12 μM): 88%
- viability (in vitro [10]; Fig. 4E, Tipifarnib 0.00 μM, Omipalisib 0.25 μM): 88%
- viability (in vitro [10]; Fig. 4E, Tipifarnib 0.00 μM, Omipalisib 0.49 μM): 88%
- viability (in vitro [10]; Fig. 4E, Tipifarnib 0.00 μM, Omipalisib 0.98 μM): 87%
- viability (in vitro [10]; Fig. 4E, Tipifarnib 0.00 μM, Omipalisib 1.97 μM): 84%
- pIC50 (SARS-CoV-2 [4]): 6.31
- fold higher antiviral activity than remdesivir (SARS-CoV-2 [11]; Vero cells): 20 fold
- CC50 at 24 h (in vitro [7]): 30.8 µM
- Cmax ([5]; in vivo, po): ~300 nM

SMILES: Cn1cncc1[C@@](N)(c1ccc(Cl)cc1)c1ccc2c(c1)c(-c1cccc(Cl)c1)cc(=O)n2C [Tipifarnib]
- inhibition at 0.69 µM (SARS-CoV-2 [8]; Fig. 4D, Omipalisib 0.00 μM): 4%
- inhibition at 1.38 µM (SARS-CoV-2 [8]; Fig. 4D, Omipalisib 0.00 μM): 4%
- inhibition at 2.75 µM (SARS-CoV-2 [8]; Fig. 4D, Omipalisib 0.00 μM): 6%
- inhibition at 5.5 µM (SARS-CoV-2 [8]; Fig. 4D, Omipalisib 0.00 μM): 11%
- inhibition at 11 µM (SARS-CoV-2 [8]; Fig. 4D, Omipalisib 0.00 μM): 91%
- inhibition at 22.01 µM (SARS-CoV-2 [8]; Fig. 4D, Omipalisib 0.00 μM): 100%
- inhibition at 44.02 µM (SARS-CoV-2 [8]; Fig. 4D, Omipalisib 0.00 μM): 92%
- inhibition at 0.69 µM (SARS-CoV-2 [8]; Fig. 4G, Remdesivir 0.00 μM): 0%
- inhibition at 1.38 µM (SARS-CoV-2 [8]; Fig. 4G, Remdesivir 0.00 μM): 0%
- inhibition at 2.75 µM (SARS-CoV-2 [8]; Fig. 4G, Remdesivir 0.00 μM): 0%
- inhibition at 5.5 µM (SARS-CoV-2 [8]; Fig. 4G, Remdesivir 0.00 μM): 10%
- inhibition at 11 µM (SARS-CoV-2 [8]; Fig. 4G, Remdesivir 0.00 μM): 93%
- inhibition at 22.01 µM (SARS-CoV-2 [8]; Fig. 4G, Remdesivir 0.00 μM): 100%
- inhibition at 44.02 µM (SARS-CoV-2 [8]; Fig. 4G, Remdesivir 0.00 μM): 87%
- CC50 at 24 h [1]: > 50 µM
- CC50 at 24 h [2]: 16.6 µM
- pIC50 (SARS-CoV-2 [3]; [12]): 5.34
- viability (in vitro [10]; Fig. 4E, Tipifarnib 0.69 μM, Omipalisib 0.00 μM): 90%
- viability (in vitro [10]; Fig. 4E, Tipifarnib 1.38 μM, Omipalisib 0.00 μM): 91%
- viability (in vitro [10]; Fig. 4E, Tipifarnib 2.75 μM, Omipalisib 0.00 μM): 90%
- viability (in vitro [10]; Fig. 4E, Tipifarnib 5.50 μM, Omipalisib 0.00 μM): 91%
- viability (in vitro [10]; Fig. 4E, Tipifarnib 11.00 μM, Omipalisib 0.00 μM): 76%
- viability (in vitro [10]; Fig. 4E, Tipifarnib 22.01 μM, Omipalisib 0.00 μM): 7%
- viability (in vitro [10]; Fig. 4E, Tipifarnib 44.02 μM, Omipalisib 0.00 μM): 0%
- viability (in vitro [10]; Fig. 4H, Tipifarnib 0.69 μM, Remdesivir 0.00 μM): 91%
- viability (in vitro [10]; Fig. 4H, Tipifarnib 1.38 μM, Remdesivir 0.00 μM): 90%
- viability (in vitro [10]; Fig. 4H, Tipifarnib 2.75 μM, Remdesivir 0.00 μM): 89%
- viability (in vitro [10]; Fig. 4H, Tipifarnib 5.50 μM, Remdesivir 0.00 μM): 88%
- viability (in vitro [10]; Fig. 4H, Tipifarnib 11.00 μM, Remdesivir 0.00 μM): 80%
- viability (in vitro [10]; Fig. 4H, Tipifarnib 22.01 μM, Remdesivir 0.00 μM): 6%
- viability (in vitro [10]; Fig. 4H, Tipifarnib 44.02 μM, Remdesivir 0.00 μM): 0%
- pIC50 (SARS-CoV-2 [4]): 4.96
- Cmax [5, 13]: ~8600 nM

SMILES: CCN(CC)CCCC(C)Nc1ccnc2cc(Cl)ccc12 (stereo not drawn) [chloroquine]
- antiviral activity against SARS-CoV-2 in Vero cells (SARS-CoV-2 [11]): showed antiviral activity

SMILES: Cc1cccc(C)c1OCC(=O)N[C@@H](Cc1ccccc1)[C@@H](O)C[C@H](Cc1ccccc1)NC(=O)[C@H](C(C)C)N1CCCNC1=O [lopinavir]
- antiviral activity against SARS-CoV-2 in Vero cells (SARS-CoV-2 [11]): showed antiviral activity
